Several values for one entry are separate records, joined by “and”; a condition that tells them apart may be missing. Equal values may be shown once.
Test: an = ratio of the nth substance listed
Conditions: 100 kPa, Liquid, Buoyancy - hydrostatic balance

[F][Al]([F])[F] [aluminum fluoride] + [F-].[K+]
mass density
Conditions | a2 = 1.3 | a2 = 1.5
1039.4 K | 1799 kg/m3 | –
1039.6 K | 1795 kg/m3 | –
1039.8 K | 1795 kg/m3 | –
1039.9 K | 1798 kg/m3 | –
1040.1 K | 1795 kg/m3 | –
1040.4 K | 1795 kg/m3 | –
1040.6 K | 1798 kg/m3 and 1795 kg/m3 | –
1040.8 K | 1798 kg/m3 | –
1040.9 K | 1797 kg/m3 | –
1041 K | 1796 kg/m3 and 1797 kg/m3 | –
1041.2 K | 1795 kg/m3 | –
1042.1 K | 1796 kg/m3 | –
1042.3 K | 1794 kg/m3 | –
1042.5 K | 1796 kg/m3 | –
1042.8 K | 1793 kg/m3 and 1794 kg/m3 | –
1042.9 K | 1792 kg/m3 and 1794 kg/m3 | –
1043 K | 1793 kg/m3 | –
1043.1 K | 1795 kg/m3 | –
1043.4 K | 1795 kg/m3 | –
1043.7 K | 1795 kg/m3 | –
1043.8 K | 1794 kg/m3 | –
1043.9 K | 1794 kg/m3 and 1791 kg/m3 | –
1044.3 K | 1791 kg/m3 | –
1044.4 K | 1791 kg/m3 | –
1045 K | 1793 kg/m3 | –
1045.3 K | 1793 kg/m3 and 1790 kg/m3 | –
1045.4 K | 1789 kg/m3 | –
1045.6 K | 1792 kg/m3 | –
1045.8 K | 1793 kg/m3 | –
1046.1 K | 1793 kg/m3 | –
1046.3 K | 1789 kg/m3 | –
1046.5 K | 1789 kg/m3 | –
1046.7 K | 1792 kg/m3 and 1789 kg/m3 | –
1046.9 K | 1789 kg/m3 | –
1047 K | 1789 kg/m3 | –
1047.3 K | 1792 kg/m3 | –
1047.4 K | 1791 kg/m3 | –
1047.6 K | 1791 kg/m3 | –
1048 K | 1791 kg/m3 | –
1048.1 K | 1788 kg/m3 | –
1048.4 K | 1786 kg/m3 | –
1048.6 K | 1790 kg/m3 and 1786 kg/m3 | –
1048.8 K | 1788 kg/m3 | –
1049.4 K | 1789 kg/m3 | –
1049.5 K | 1789 kg/m3 | –
1049.6 K | 1786 kg/m3 | –
1049.7 K | 1785 kg/m3 | –
1049.9 K | 1789 kg/m3 | –
1050.5 K | 1788 kg/m3 and 1785 kg/m3 | –
1050.6 K | 1784 kg/m3 | –
1051.2 K | 1787 kg/m3 | –
1051.3 K | 1787 kg/m3 | –
1051.5 K | 1787 kg/m3 and 1783 kg/m3 and 1784 kg/m3 | –
1051.6 K | 1787 kg/m3 and 1782 kg/m3 | –
1052 K | 1783 kg/m3 | –
1052.2 K | 1786 kg/m3 and 1782 kg/m3 | –
1052.7 K | 1786 kg/m3 | –
1053.2 K | 1782 kg/m3 | –
1053.4 K | 1786 kg/m3 | –
1053.5 K | 1786 kg/m3 | –
1053.7 K | 1786 kg/m3 | –
1053.9 K | 1782 kg/m3 | –
1054.4 K | 1785 kg/m3 | –
1054.7 K | 1784 kg/m3 | –
1055.3 K | 1784 kg/m3 | –
1055.6 K | 1784 kg/m3 | –
1056 K | 1784 kg/m3 | –
1056.1 K | 1783 kg/m3 | –
1056.3 K | 1783 kg/m3 | –
1056.4 K | 1783 kg/m3 | –
1057.3 K | 1782 kg/m3 | –
1057.7 K | 1782 kg/m3 | –
1057.9 K | 1781 kg/m3 | –
1058.1 K | 1781 kg/m3 | –
1059.2 K | 1781 kg/m3 | –
1059.3 K | 1780 kg/m3 | –
1059.5 K | 1780 kg/m3 | –
1060.2 K | 1779 kg/m3 and 1780 kg/m3 | –
1060.5 K | – | 1796 kg/m3
1060.8 K | – | 1796 kg/m3
1061.1 K | 1778 kg/m3 | 1796 kg/m3
1061.2 K | 1779 kg/m3 | –
1061.3 K | 1778 kg/m3 | –
1061.5 K | 1779 kg/m3 | –
1061.6 K | 1777 kg/m3 | 1796 kg/m3
1061.9 K | – | 1795 kg/m3
1062.2 K | – | 1795 kg/m3
1062.5 K | – | 1795 kg/m3
1062.8 K | 1777 kg/m3 | –
1062.9 K | – | 1795 kg/m3
1063.2 K | 1776 kg/m3 and 1777 kg/m3 | –
1063.3 K | – | 1794 kg/m3
1063.6 K | – | 1794 kg/m3
1063.7 K | 1776 kg/m3 | –
1064.1 K | 1775 kg/m3 | 1794 kg/m3
1064.4 K | – | 1794 kg/m3
1064.6 K | 1775 kg/m3 | –
1064.7 K | – | 1793 kg/m3
1065.2 K | – | 1793 kg/m3
1065.3 K | 1775 kg/m3 | –
1065.5 K | – | 1792 kg/m3
1065.8 K | 1774 kg/m3 | –
1066 K | 1774 kg/m3 | 1792 kg/m3
1066.3 K | 1775 kg/m3 | –
1066.4 K | – | 1792 kg/m3
1066.7 K | – | 1792 kg/m3
1066.9 K | 1774 kg/m3 | –
1067 K | 1773 kg/m3 | –
1067.2 K | 1773 kg/m3 | 1791 kg/m3
1067.4 K | – | 1791 kg/m3
1067.7 K | 1772 kg/m3 | –
1067.9 K | – | 1791 kg/m3
1068.2 K | – | 1790 kg/m3

From the NIST ThermoML archive (doi:10.1021/acs.jced.8b00157)
